Data on 22 molecules can be found in patent US20250082633A1, “COMPOUNDS AND METHODS FOR MODULATING SPLICING” (REMIX THERAPEUTICS INC., priority 2021, published 2025).

In assay [1] the test system is HiBiT-tagged HTT protein in K562 cells. The assay can be described thus: HiBit protein abundance assay, HTT. It counts as cell-based, human. The conditions noted are these: K562 HiBiT-modified cells, 24 hours, luminescence. The method, then:
Compounds described herein were used to screen for effects on quantitative protein abundance using a HiBit assay system (Promega). Quantitative protein abundance was determined by measuring the protein levels of HiBit-tagged protein targets expressed in cell culture via luminescence using the Nano-Glo HiBiT Lytic Detection System, which uses a split complementation assay format to reconstitute NanoBiT enzyme to generate a luminescent signal. A protein abundance assay was developed such that endogenous protein targets could be modified with the HiBiT peptide tag and their abundance could be assessed after compound treatment. Briefly, K562 cell lines containing a HiBiT-modification were treated with various compounds described herein (e.g., compounds of Formulas (I), (II), or (III)). After treatment for 24 hours, the protein abundance of a specific target was determined by measuring luminescence. • Promega Nano-Glo HiBiT Lytic Detection System (cat #N3030) • Corning 384-well TC-treated microplates (cat #3570) • Synthego Engineered Cells Knock-In Clones [table] Cells were maintained in IMDM with 10% FBS. Before the assay, cells were diluted with phenolphthalein-free growth media (IMDM+1% FBS media) and were seeded in a 384-well plate at a density of 10000 cells/well (for each cell line listed in Table 6). Each compound was prepared as a 10-point 3-fold serial dilution in DMSO with the top dose at a final concentration of 10 μM in the well. Unmodified K562 cells were added at the previously specified density with DMSO to serve as an assay baseline and positive control (PC) and DMSO only with the respective modified cell lines was added to the negative control (NC) columns. Final DMSO concentration was kept at or below 0.25%. Treated cell plates were placed in an incubator at 37° C. with 5% CO2 for 24 hours. After 24 hours, 25 μL of Complete HiBit Lytic reagent was added to each well at room temperature (e.g. one plate requiring 10 mL Lytic Buffer, 100 μL LgBiT Protein, 200 μL Lytic Substrate), shaken for 5 minutes at 600 RPM, then left to sit for 10 minutes for signal to stabilize before reading on a Spark Cyto plate reader (Tecan) with a 500 ms measurement time. To determine compound effects on protein abundance of each target in Table 6, the percent response for each respective cell line was calculated at each compound concentration as follows: For the normalized response at each concentration, a four-parameter logistical regression was fit to the data and the response was interpolated at the 50% value to determine a concentration for protein abundance at 50% (IC50) the untreated control.
A general note: The HiBiT peptide binds its large partner to form an active luciferase.

The test system of a further assay is HTT mRNA. The assay can be described thus: RT-qPCR splicing assay, HTT canonical (CJ) and alternative (AJ) junction mRNA. It counts as cell-based. The conditions noted are these: Homo sapiens; for IC50: read-out: HTT CJ IC50; for AC50: read-out: HTT AJ AC50. Put shortly:
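Splice-junction mRNAs (CJ, AJ) measured by TaqMan one-step RT-qPCR on cell lysates, using PPIA as reference for adherent A673 and GAPDH or GUSB for K562. Cells exposed for 24 h to 11 threefold concentrations up to 10 uM final, with DMSO at or below 0.25%.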
In general terms: In qPCR the cycle at which signal appears reflects the starting amount.

Where [2] appears, read: decrease in CJ mRNA levels, larger panel of genes, Table 3.
[3] abbreviates: decrease in canonical junction mRNA, A673 or K562 cells, 24 hours treatment, Table 2.
[4] abbreviates: increase in alternative junction mRNA, A673 or K562 cells, 24 hours treatment, Table 2.

Read-outs that look alike come from different tables or passages of the source.

Consider `Cc1cn2nc(-c3cc4cn(C5CCNCC5)nc4c(O)n3)cc(C)c2n1` [Compound 139, 5-(2,8-dimethylimidazo[1,2-b]pyridazin-6-yl)-2-(4-piperidyl)-6H-pyrazolo[3,4-c]pyridin-7-one], for which the IC50 (as a rule, the concentration needed to halve the response being measured) in assay [1] was 0.1 to 1 µM; in the assay with HTT mRNA (setting [2]), below 0.1 µM; in the assay on HTT mRNA (setting [3]) it was below 0.1 µM. In addition, the AC50 (as a rule, the concentration at which the activity in the assay is half-maximal) in the assay with HTT mRNA (setting [4]) was below 0.1 µM.

With `COc1cc2nn(C3CCNCC3)cc2cc1-c1cc(C)c2nc(C)cn2n1` [Compound 159, 6-(6-methoxy-2-(piperidin-4-yl)-2H-indazol-5-yl)-2,8-dimethylimidazo[1,2-b]pyridazine], the IC50 (in assay [1]; in the assay with HTT mRNA (setting [2]); with HTT mRNA (setting [3])) was above 10 µM each time. Further, the AC50 in the assay on HTT mRNA (setting [4]) is above 10 µM.

As for `Cc1cn2nc(-c3cc(F)c4nn([C@@H]5CCNC6(CC6)C5)cc4c3)cc(C)c2n1` [Compound 173], the IC50 (in assay [1]; in the assay on HTT mRNA (setting [2]); in the assay on HTT mRNA (setting [3])) was below 0.1 µM each time. Moreover, the AC50 in the assay on HTT mRNA (setting [4]) was below 0.1 µM.

Take `Cc1cn2nc(-c3ccc4nn(C5CCNCC5)cc4n3)cc(C)c2n1` [Compound 138, 2,8-dimethyl-6-[2-(4-piperidyl)pyrazolo[4,3-b]pyridin-5-yl]imidazo[1,2-b]pyridazine]: the IC50 in assay [1] is 0.1 to 1 µM; in the assay on HTT mRNA (setting [2]) it was below 0.1 µM; with HTT mRNA (setting [3]) it was below 0.1 µM. For the same molecule, in the assay with HTT mRNA (setting [4]), the AC50 was 0.1 to 1 µM.

On to `Cc1cn2nc(-c3cc4cn(C5CCNCC5)nc4c(OCc4ccccc4)n3)cc(C)c2n1` [Compound 153, 6-[7-benzyloxy-2-(4-piperidyl)pyrazolo [3,4-c]pyridin-5-yl]-2,8-dimethyl-imidazo[1,2-b]pyridazine], for which the IC50 in assay [1] was 1 to 10 µM; in the assay on HTT mRNA (setting [2]) it was above 10 µM; in the assay with HTT mRNA (setting [3]), above 10 µM. In the assay with HTT mRNA (setting [4]), the AC50 fell in the range of 1 to 10 µM.

As for `Cc1cn2nc(-c3cc(F)c4nn(C5CCN(C6CCC6)C6(CC6)C5)cc4c3)cc(C)c2n1` (stereo not shown) [Compound 186, 6-[2-(4-cyclobutyl-4-azaspiro[2.5]octan-7-yl)-7-fluoro-indazol-5-yl]-2,8-dimethyl-imidazo[1,2-b]pyridazine], the IC50 (in assay [1]; with HTT mRNA (24 h); in the assay with HTT mRNA) was below 0.1 µM throughout. Moreover, in the assay on HTT mRNA (24 h), the concentration at half-maximal activity (AC50) was below 0.1 µM.

With `Cc1cn2nc(-c3cc(F)c4nn(C5CCN(C)CC5)cc4c3)cc(C)c2n1` [Compound 150, 6-[7-fluoro-2-(1-methyl-4-piperidyl)indazol-5-yl]-2,8-dimethyl-imidazo[1,2-b]pyridazine], the IC50 (in assay [1]; with HTT mRNA (setting [2]); in the assay on HTT mRNA (setting [3])) was below 0.1 µM each time. Further, the AC50 in the assay with HTT mRNA (setting [4]) was below 0.1 µM.

In the case of `Cc1cn2nc(-c3cc(F)c4nn(C5CCNC6(CCC6)C5)cc4c3)cc(C)c2n1` (stereo not shown) [Compound 189, 6-[2-(5-azaspiro[3.5]nonan-8-yl)-7-fluoro-indazol-5-yl]-2,8-dimethyl-imidazo[1,2-b]pyridazine], the IC50 (in assay [1]; in the assay with HTT mRNA (setting [2]); in the assay with HTT mRNA (setting [3])) was below 0.1 µM each time. Further, the AC50 in the assay on HTT mRNA (setting [4]) was below 0.1 µM.

Regarding `Cc1cn2nc(-c3cc4cn(C5CCNCC5)nc4cc3O)cc(C)c2n1` [Compound 154, 5-(2,8-dimethylimidazo[1,2-b]pyridazin-6-yl)-2-(piperidin-4-yl)-2H-indazol-6-ol], the IC50 (in assay [1]; in the assay with HTT mRNA (setting [2]); with HTT mRNA (setting [3])) was below 0.1 µM throughout. Further, the AC50 in the assay on HTT mRNA (setting [4]) was 0.1 to 1 µM.

Turning to `Cn1cc2cc(-c3cc(F)c4nn(C5CCNC6(CC6)C5)cc4c3)cc(F)c2n1` (stereo not shown) [Compound 108, 2-(4-azaspiro[2.5]octan-7-yl)-7-fluoro-5-(7-fluoro-2-methyl-indazol-5-yl)indazole], the IC50 (in assay [1]; with HTT mRNA (setting [2]); in the assay on HTT mRNA (setting [3])) was 0.1 to 1 µM each time. Also, the AC50 in the assay on HTT mRNA (setting [4]) is 0.1 to 1 µM.

Consider `Cc1cn2nc(-c3cc(F)c4nn([C@H]5CCNC[C@@H]5F)cc4c3)cc(C)c2n1` [Compound 167, 6-(7-fluoro-2-((3S,4S)-3-fluoropiperidin-4-yl)-2H-indazol-5-yl)-2,8-dimethylimidazo[1,2-b]pyridazine], for which the IC50 (in assay [1]; in the assay on HTT mRNA (setting [2]); in the assay with HTT mRNA (setting [3])) was 0.1 to 1 µM in each case. In the assay on HTT mRNA (setting [4]), the AC50 was in the range of 0.1 to 1 µM.

With `Cc1ccc2cc(-c3cc(F)c4nn(C5CCNCC5)cc4c3)ccc2n1` [Compound 163, 6-[7-fluoro-2-(4-piperidyl)indazol-5-yl]-2-methyl-quinoline], the IC50 in assay [1] is 1 to 10 µM; in the assay on HTT mRNA (setting [2]), above 10 µM; in the assay on HTT mRNA (setting [3]), above 10 µM. The AC50 in the assay on HTT mRNA (setting [4]) was above 10 µM.

As to `Cc1c(O)c(-c2cc(F)c3nn(C4CCNCC4)cc3c2)cc2cn(C)nc12` [Compound 126, 5-[7-fluoro-2-(4-piperidyl)indazol-5-yl]-2,7-dimethyl-indazol-6-ol], the IC50 (in assay [1]; in the assay on HTT mRNA (setting [2]); with HTT mRNA (setting [3])) was 1 to 10 µM each time. Moreover, in the assay on HTT mRNA (setting [4]), the half-maximal activity concentration (AC50) is above 10 µM.

On to `Cc1cn2nc(-c3cc(F)c4nn([C@H]5CCNC6(CC6)C5)cc4c3)cc(C)c2n1` [Compound 172], for which the IC50 (in assay [1]; in the assay with HTT mRNA (setting [2]); in the assay on HTT mRNA (setting [3])) was below 0.1 µM each time. The AC50 in the assay on HTT mRNA (setting [4]) was below 0.1 µM.

As for `Cc1nc2c(C)cc(-c3cc(F)c4nn(C5CCNCC5)cc4c3)cc2o1` [Compound 137, 6-[7-fluoro-2-(4-piperidyl)indazol-5-yl]-2,4-dimethyl-1,3-benzoxazole], the IC50 (in assay [1]; in the assay with HTT mRNA (setting [2]); in the assay with HTT mRNA (setting [3])) was below 0.1 µM in each case. Moreover, in the assay on HTT mRNA (setting [4]), the AC50 is below 0.1 µM.

For `CCN1CCC(n2cc3cc(-c4cc(F)c5nn(C)cc5c4)cc(F)c3n2)CC1` [Compound 104, 2-(1-ethyl-4-piperidyl)-7-fluoro-5-(7-fluoro-2-methyl-indazol-5-yl)indazole], the IC50 (in assay [1]; in the assay on HTT mRNA (setting [2]); in the assay with HTT mRNA (setting [3])) was 0.1 to 1 µM in each case. In the assay on HTT mRNA (setting [4]), the AC50 was in the range of 0.1 to 1 µM.

Take `COC1=C(C)C2N=C(C)OC2C=C1c1cc(F)c2nn(C3CCNCC3)cc2n1` (stereo not shown) [Compound 144]: the IC50 in assay [1] is 1 to 10 µM; in the assay with HTT mRNA (setting [2]), above 10 µM; in the assay on HTT mRNA (setting [3]) it was above 10 µM. Also, the AC50 with HTT mRNA (setting [4]) was above 10 µM.

For `Cc1cn2cc(-c3cc(F)c4nn(C5CCNCC5)cc4c3)cc(F)c2n1` [Compound 129, 7-fluoro-5-(8-fluoro-2-methylimidazo[1,2-a]pyridin-6-yl)-2-(piperidin-4-yl)-2H-indazole], the IC50 (in assay [1]; in the assay on HTT mRNA (setting [2]); in the assay with HTT mRNA (setting [3])) was below 0.1 µM each time. For the same molecule, the AC50 in the assay on HTT mRNA (setting [4]) is below 0.1 µM.

`CCN1CCC(n2cc3cc(-c4cc(C)c5nc(C)cn5n4)cc(F)c3n2)CC1` [Compound 146, 6-[2-(1-ethyl-4-piperidyl)-7-fluoro-indazol-5-yl]-2,8-dimethyl-imidazo[1,2-b]pyridazine]: the IC50 (in assay [1]; in the assay on HTT mRNA (setting [2]); in the assay with HTT mRNA (setting [3])) was below 0.1 µM each time. For the same molecule, the AC50 with HTT mRNA (setting [4]) is below 0.1 µM.

Turning to `Cc1cn2nc(-c3cc(F)c4nn(C5CCN(C)C6(CC6)C5)cc4c3)cc(C)c2n1` (stereo not shown) [Compound 174, 6-[7-fluoro-2-(4-methyl-4-azaspiro[2.5]octan-7-yl)indazol-5-yl]-2,8-dimethyl-imidazo[1,2-b]pyridazine], the IC50 (in assay [1]; in the assay with HTT mRNA (setting [2]); in the assay on HTT mRNA (setting [3])) was below 0.1 µM in each case. In addition, in the assay with HTT mRNA (setting [4]), the AC50 is below 0.1 µM.

For the molecule `Cc1cn2cc(-c3cc(F)c4nn(C5CCNCC5)cc4c3)cc(C)c2n1` [Compound 125, 5-(2,8-dimethylimidazo[1,2-a]pyridin-6-yl)-7-fluoro-2-(4-piperidyl)indazole], the IC50 in assay [1] was below 0.1 µM; in the assay with HTT mRNA (setting [2]), 0.1 to 1 µM; in the assay with HTT mRNA (setting [3]), 0.1 to 1 µM. Moreover, the AC50 with HTT mRNA (setting [4]) was in the range of 0.1 to 1 µM.

For the molecule `Cc1c(O)c(-c2ccc3nn(C4CCNCC4)nc3n2)cc2cn(C)nc12` [Compound 113, 2,7-dimethyl-5-[2-(4-piperidyl)triazolo[4,5-b]pyridin-5-yl]indazol-6-ol], the IC50 (in assay [1]; with HTT mRNA (setting [2]); in the assay with HTT mRNA (setting [3])) was 1 to 10 µM throughout. Besides, the AC50 with HTT mRNA (setting [4]) was 1 to 10 µM.
